Tests used:
[1] = biological target: Serine/threonine-protein kinase PLK3 (Homo sapiens, UniProt Q9H4B4); assay: Inhibition of PLK3 (unknown origin) by FRET-based homogeneous assay
[2] = biological target: Serine/threonine-protein kinase PLK1 (Homo sapiens, UniProt P53350); assay: Inhibition of PLK1 (unknown origin) by FRET-based homogeneous assay
[3] = biological target: Serine/threonine-protein kinase PLK2 (Homo sapiens, UniProt Q9NYY3); assay: Inhibition of PLK2 (unknown origin) by FRET-based homogeneous assay
Sequence of Serine/threonine-protein kinase PLK2 (Q9NYY3 whole entry, the tested form may be a part): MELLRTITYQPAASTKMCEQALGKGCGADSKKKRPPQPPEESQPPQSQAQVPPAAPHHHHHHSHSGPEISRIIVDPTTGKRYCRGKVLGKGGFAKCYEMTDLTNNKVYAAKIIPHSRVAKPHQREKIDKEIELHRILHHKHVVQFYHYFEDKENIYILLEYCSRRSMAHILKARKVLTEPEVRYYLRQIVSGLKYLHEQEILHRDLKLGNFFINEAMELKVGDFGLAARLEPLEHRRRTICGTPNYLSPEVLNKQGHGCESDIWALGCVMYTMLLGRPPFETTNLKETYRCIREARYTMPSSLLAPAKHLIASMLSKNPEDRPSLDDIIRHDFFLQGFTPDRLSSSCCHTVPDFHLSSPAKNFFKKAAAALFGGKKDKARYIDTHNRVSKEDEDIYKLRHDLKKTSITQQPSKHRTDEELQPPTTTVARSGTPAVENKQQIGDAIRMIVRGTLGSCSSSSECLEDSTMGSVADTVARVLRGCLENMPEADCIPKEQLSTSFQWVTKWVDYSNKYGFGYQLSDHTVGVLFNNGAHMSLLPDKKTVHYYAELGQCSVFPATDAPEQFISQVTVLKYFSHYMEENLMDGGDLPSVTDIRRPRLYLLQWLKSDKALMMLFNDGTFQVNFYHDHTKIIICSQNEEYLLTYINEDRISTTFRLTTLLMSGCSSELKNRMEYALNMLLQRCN

[4] = biological target: T1, Serine/threonine-protein kinase PLK4 (Homo sapiens, UniProt O00444); assay: Inhibition of N-terminal GST-tagged human PLK4 (1 to 391 amino acids) expressed in Escherichia coli using TMB as substrate after 30 mins by indirect ELISA assay
T1 sequence (O00444 whole entry): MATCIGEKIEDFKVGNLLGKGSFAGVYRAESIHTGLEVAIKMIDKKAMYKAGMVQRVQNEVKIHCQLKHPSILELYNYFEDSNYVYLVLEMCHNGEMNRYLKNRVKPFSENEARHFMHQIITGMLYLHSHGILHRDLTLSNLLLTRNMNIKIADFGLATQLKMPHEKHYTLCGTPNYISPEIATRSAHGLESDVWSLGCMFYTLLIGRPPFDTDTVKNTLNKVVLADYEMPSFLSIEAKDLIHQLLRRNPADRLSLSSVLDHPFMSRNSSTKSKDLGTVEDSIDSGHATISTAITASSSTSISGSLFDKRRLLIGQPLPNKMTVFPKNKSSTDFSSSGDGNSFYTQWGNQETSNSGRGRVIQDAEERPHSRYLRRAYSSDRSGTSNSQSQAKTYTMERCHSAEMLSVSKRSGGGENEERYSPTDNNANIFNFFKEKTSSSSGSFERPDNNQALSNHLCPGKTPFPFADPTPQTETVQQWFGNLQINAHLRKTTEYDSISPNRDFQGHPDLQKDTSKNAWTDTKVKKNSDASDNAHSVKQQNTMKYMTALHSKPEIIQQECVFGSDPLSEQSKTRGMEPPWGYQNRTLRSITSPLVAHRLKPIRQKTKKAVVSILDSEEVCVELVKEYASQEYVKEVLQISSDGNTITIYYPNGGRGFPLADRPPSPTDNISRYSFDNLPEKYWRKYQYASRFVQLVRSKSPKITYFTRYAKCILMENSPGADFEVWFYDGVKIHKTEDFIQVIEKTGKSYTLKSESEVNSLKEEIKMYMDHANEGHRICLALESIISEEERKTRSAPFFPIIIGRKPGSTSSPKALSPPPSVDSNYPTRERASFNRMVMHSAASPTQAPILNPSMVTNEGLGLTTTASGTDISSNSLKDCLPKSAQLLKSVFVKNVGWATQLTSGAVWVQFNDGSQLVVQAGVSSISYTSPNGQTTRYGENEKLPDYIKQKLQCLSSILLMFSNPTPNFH

HCC1954 = assay: Antiproliferative activity against human HCC1954 cells assessed as growth inhibition after 5 days by SRB assay; assay type: functional; conditions: HCC1954, 120 h
MDA-MB-231 = assay: Antiproliferative activity against human MDA-MB-231 cells assessed as growth inhibition after 5 days by SRB assay; assay type: functional; conditions: MDA-MB-231, 120 h
SK-BR-3 = assay: Antiproliferative activity against human SKBR3 cells assessed as growth inhibition after 5 days by SRB assay; assay type: functional; conditions: SK-BR-3, 120 h
MDA-MB-468 = assay: Antiproliferative activity against human MDA-MB-468 cells assessed as growth inhibition after 5 days by SRB assay; assay type: functional; conditions: MDA-MB-468, 120 h
MCF7 = assay: Antiproliferative activity against human MCF7 cells assessed as growth inhibition after 5 days by SRB assay; assay type: functional; conditions: MCF7, 120 h
[5] = Permeability of the compound at pH 7.4 by PAMPA; assay type: ADME; conditions: read-out: permeability

Sequence of Serine/threonine-protein kinase PLK1 (P53350 whole entry): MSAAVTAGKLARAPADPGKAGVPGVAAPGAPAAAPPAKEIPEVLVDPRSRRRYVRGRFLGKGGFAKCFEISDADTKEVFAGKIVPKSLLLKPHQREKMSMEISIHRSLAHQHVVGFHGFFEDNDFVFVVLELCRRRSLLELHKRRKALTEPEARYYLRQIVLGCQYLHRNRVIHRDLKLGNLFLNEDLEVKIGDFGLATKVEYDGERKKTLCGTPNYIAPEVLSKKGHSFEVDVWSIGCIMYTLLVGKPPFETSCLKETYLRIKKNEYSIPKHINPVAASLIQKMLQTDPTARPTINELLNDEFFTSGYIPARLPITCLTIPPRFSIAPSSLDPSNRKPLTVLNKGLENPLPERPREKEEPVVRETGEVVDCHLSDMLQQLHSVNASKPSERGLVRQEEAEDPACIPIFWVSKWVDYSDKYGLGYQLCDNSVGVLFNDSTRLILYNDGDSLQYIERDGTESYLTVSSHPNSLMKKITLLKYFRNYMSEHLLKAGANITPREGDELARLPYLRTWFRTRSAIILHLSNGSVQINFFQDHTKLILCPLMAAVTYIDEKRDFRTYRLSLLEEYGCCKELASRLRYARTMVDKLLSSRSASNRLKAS
Sequence of Serine/threonine-protein kinase PLK3 (Q9H4B4 whole entry): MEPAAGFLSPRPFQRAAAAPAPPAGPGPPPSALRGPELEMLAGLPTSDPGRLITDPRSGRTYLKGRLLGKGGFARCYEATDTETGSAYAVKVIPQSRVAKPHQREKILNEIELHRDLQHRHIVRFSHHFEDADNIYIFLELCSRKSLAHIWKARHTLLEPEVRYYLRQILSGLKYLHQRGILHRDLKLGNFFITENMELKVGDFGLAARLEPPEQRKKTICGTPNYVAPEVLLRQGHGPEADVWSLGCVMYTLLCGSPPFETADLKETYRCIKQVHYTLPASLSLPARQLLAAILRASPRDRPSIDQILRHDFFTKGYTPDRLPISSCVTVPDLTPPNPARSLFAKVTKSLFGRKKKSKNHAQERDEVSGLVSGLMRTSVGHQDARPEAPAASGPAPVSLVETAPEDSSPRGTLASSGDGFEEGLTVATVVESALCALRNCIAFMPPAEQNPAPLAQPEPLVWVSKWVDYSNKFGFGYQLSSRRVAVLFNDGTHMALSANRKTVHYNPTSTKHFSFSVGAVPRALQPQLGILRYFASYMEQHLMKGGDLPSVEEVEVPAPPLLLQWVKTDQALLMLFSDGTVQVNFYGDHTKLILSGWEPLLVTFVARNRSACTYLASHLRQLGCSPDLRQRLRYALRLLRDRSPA

Compound	IC50 [1] [µM]	IC50 [2] [µM]	IC50 [3] [µM]	IC50 [4] [µM]	GI50 (HCC1954) [µM]	GI50 (MDA-MB-231) [µM]	GI50 (SK-BR-3) [µM]	GI50 (MDA-MB-468) [µM]	GI50 (MCF7) [µM]	Papp [5] [×10⁻⁶ cm/s]
O=C1Nc2ccc(I)cc2/C1=C/c1cc(Br)c(O)c(Br)c1		4.6		0.23						
O=C1Nc2ccccc2/C1=C\c1ccc2cn[nH]c2c1	> 10	24	5.7							
O=C1Nc2ccccc2/C1=C\c1ccc2c(/C=C/c3cccnc3)n[nH]c2c1	> 10	> 10	> 10	0.002	12	> 50	> 50	0.29	0.28	
O=C1Nc2ccc(F)cc2/C1=C\c1ccc2cn[nH]c2c1		15	4.4	0.06						
O=C1Nc2ccccc2/C1=C/c1ccc(O)cc1		25		0.23						
O=C1Nc2ccc(O)cc2/C1=C\c1ccc2c(/C=C/c3ccncc3)n[nH]c2c1	> 10	> 10	> 10	0.0009	> 50		> 50	0.73	> 50	4
O=C1Nc2ccccc2/C1=C\c1ccc2c(/C=C/c3ccccn3)n[nH]c2c1	> 10	> 10	> 10	0.013	30	8.1	1.2	0.78	1.7	
COc1ccc2c(c1)/C(=C\c1ccc3c(/C=C/c4ccc(CN(C)C)cc4)n[nH]c3c1)C(=O)N2	> 10	> 10	> 10	0.00032	1.4	0.01	0.03	0.03	< 0.01	
O=C1Nc2ccccc2/C1=C/c1cccc(O)c1		25		0.86						
COc1ccc2c(c1)/C(=C\c1ccc3c(/C=C/c4cccnc4)n[nH]c3c1)C(=O)N2	> 10	> 10	> 10	0.00048	> 50	> 50	4.6	0.19	0.12	
CNC(=O)c1ccccc1Sc1ccc2c(/C=C/c3ccccn3)n[nH]c2c1 [AXITINIB]					2.7			1.3		
O=C1Nc2ccccc2/C1=C/c1ccccc1O		29		6.1						
Cc1ccc2c(c1)/C(=C\c1ccc3c(/C=C/c4ccncc4)n[nH]c3c1)C(=O)N2	> 10	> 10	> 10	0.0014	13	5	> 50	0.12	0.07	
COc1ccc2c(c1)/C(=C\c1ccc3cn[nH]c3c1)C(=O)N2	< 10	10	< 10	0.047						
O=C1Nc2ccc(Br)cc2/C1=C/c1ccc(O)c(O)c1		> 10		13						
COc1ccc2c(c1)/C(=C\c1ccc3c(/C=C/c4ccncc4)n[nH]c3c1)C(=O)N2	> 10	> 10	> 10	0.00045	3.1	21		0.14	0.04	

The remaining lines, values ahead:

IC50 [1] [µM]	IC50 [2] [µM]	IC50 [3] [µM]	IC50 [4] [µM]	GI50 (HCC1954) [µM]	GI50 (MDA-MB-231) [µM]	GI50 (SK-BR-3) [µM]	GI50 (MDA-MB-468) [µM]	GI50 (MCF7) [µM]	Papp [5] [×10⁻⁶ cm/s]	Compound
> 10	> 10	10	6.3							CC(=O)Nc1ccc2c(c1)/C(=C\c1ccc3cn[nH]c3c1)C(=O)N2
	3.6		0.86							COc1cc(/C=C2\C(=O)Nc3ccc(Br)cc32)cc(Cl)c1O
> 10	26	> 10	1.3							O=C1Nc2cc(Cl)ccc2/C1=C\c1ccc2cn[nH]c2c1
> 10	29	8.9	2.2							O=C1Nc2ccccc2/C1=C\c1ccc2[nH]nnc2c1
	49		10							CNC(=O)c1ccc2c(c1)/C(=C\c1ccc3cn[nH]c3c1)C(=O)N2
	> 10		6.1							COc1cc(/C=C2\C(=O)N(C)c3ccc(Br)cc32)cc(Cl)c1O
24	15	> 10	0.24							O=C1Nc2ccc(F)cc2/C1=C/c1ccc2cn[nH]c2c1
> 10	> 10	> 10	0.054							O=C1Nc2ccc(Cl)cc2/C1=C\c1ccc2cn[nH]c2c1
	> 10		13							COc1cc(/C=C2\C(=O)Nc3ccc(Br)cc32)cc(Br)c1OC
> 10	> 10	> 10	0.042		> 50	12	4.4	5.2		O=C1Nc2ccccc2/C1=C\c1ccc2c(/C=C/c3ccccc3)n[nH]c2c1
11	20	1.9	0.39							O=C1Nc2ccccc2/C1=C/c1ccc2[nH]ncc2c1
> 10	> 10	> 10	0.00082	2	> 50	16	0.8	6.8	2.1	O=C1Nc2ccccc2/C1=C\c1ccc2c(/C=C/c3ccc(C(=O)O)cc3)n[nH]c2c1
> 10	> 10	> 10	0.0016	33	> 50	13	0.09	1.7		CCc1ccc2c(c1)/C(=C\c1ccc3c(/C=C/c4cccnc4)n[nH]c3c1)C(=O)N2
> 10	> 10	> 10	0.0023	> 50	> 50	> 50	0.32	0.16		O=C1Nc2ccc(Cl)cc2/C1=C\c1ccc2c(/C=C/c3ccncc3)n[nH]c2c1
> 10	> 10	10	1.2							CC(=O)Nc1ccc2c(c1)NC(=O)/C2=C/c1ccc2cn[nH]c2c1
